Where two headings read alike, the source gives them in different places.
Tests used:
Experiment in all cases: HotSpot kinase profiling
Assay type in all cases: biochemical
FGFR1 = molecular target: T1, FGFR1 (Homo sapiens, UniProt P11362)
T1 construct: purchased Reaction Biology Corp
Summary of the method: (§1)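 P81 filtration radiometric readout; 2 h incubation at room temperature; 0.1% phosphoric acid wash; DMSO negative control; % inhibition, mean of replicate runs.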

IKKa/CHUK = molecular target: T2, IKKa/CHUK (Homo sapiens, UniProt O15111)
T2 construct: purchased Reaction Biology Corp
T2 sequence (O15111 1-745): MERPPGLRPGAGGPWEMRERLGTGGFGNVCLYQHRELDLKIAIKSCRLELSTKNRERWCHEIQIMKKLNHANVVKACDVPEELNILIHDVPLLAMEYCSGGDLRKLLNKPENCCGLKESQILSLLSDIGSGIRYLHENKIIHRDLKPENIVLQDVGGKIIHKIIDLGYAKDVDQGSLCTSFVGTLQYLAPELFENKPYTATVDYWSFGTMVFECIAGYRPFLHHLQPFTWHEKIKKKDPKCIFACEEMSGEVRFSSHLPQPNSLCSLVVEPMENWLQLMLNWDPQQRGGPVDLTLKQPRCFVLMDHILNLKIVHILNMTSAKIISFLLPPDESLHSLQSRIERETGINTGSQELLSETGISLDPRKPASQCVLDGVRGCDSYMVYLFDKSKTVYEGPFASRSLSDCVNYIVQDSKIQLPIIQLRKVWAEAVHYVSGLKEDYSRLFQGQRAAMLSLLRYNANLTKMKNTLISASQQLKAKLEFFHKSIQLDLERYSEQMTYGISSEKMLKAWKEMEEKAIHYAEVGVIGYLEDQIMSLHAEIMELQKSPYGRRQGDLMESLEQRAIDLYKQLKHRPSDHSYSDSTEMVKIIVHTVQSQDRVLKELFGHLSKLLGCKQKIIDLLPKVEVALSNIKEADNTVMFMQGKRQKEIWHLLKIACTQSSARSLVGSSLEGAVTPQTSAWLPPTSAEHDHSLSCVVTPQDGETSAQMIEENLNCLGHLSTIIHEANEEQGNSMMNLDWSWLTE
Summary of the method: as §1

MNK1 = molecular target: T3, MNK1 (Homo sapiens, UniProt Q9BUB5)
T3 construct: purchased Reaction Biology Corp
T3 sequence (Q9BUB5 whole entry): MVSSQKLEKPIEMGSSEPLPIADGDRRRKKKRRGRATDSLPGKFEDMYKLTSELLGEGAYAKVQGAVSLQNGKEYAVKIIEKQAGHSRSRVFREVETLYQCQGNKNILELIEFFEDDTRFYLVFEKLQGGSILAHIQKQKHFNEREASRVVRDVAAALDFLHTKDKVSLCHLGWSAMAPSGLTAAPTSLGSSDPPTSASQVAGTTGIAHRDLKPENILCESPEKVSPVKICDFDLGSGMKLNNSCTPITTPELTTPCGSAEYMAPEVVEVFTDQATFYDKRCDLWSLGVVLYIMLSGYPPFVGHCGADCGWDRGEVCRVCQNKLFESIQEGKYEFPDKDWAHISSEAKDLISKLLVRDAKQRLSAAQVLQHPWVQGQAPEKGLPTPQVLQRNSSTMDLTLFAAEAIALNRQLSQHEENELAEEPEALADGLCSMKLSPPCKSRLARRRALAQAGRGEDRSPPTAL
Summary of the method: as §1

NEK5 = molecular target: T4, NEK5 (Homo sapiens, UniProt Q6P3R8)
T4 construct: purchased Reaction Biology Corp
T4 sequence (Q6P3R8 1-708): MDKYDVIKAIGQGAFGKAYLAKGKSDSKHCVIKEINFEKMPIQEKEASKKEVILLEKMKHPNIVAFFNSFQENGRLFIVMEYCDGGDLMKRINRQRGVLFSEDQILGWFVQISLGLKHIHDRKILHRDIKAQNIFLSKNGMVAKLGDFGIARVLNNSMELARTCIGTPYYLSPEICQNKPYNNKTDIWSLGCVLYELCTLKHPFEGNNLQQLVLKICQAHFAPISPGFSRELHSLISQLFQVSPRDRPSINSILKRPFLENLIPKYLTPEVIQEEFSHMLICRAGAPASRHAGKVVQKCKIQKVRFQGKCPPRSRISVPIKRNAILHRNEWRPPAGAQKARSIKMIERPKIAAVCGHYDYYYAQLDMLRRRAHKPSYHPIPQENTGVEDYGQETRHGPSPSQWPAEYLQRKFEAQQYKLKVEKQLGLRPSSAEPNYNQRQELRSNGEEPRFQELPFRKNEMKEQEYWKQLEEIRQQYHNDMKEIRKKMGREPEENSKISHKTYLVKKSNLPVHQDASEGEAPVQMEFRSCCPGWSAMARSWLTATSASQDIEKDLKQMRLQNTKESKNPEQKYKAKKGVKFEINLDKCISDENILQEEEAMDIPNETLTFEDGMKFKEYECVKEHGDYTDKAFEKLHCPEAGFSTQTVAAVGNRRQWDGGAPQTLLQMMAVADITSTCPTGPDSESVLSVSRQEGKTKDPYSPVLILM
Summary of the method: as §1

SGK1 = molecular target: T5, SGK1 (Homo sapiens, UniProt O00141)
T5 construct: purchased Reaction Biology Corp
T5 sequence (O00141 1-431): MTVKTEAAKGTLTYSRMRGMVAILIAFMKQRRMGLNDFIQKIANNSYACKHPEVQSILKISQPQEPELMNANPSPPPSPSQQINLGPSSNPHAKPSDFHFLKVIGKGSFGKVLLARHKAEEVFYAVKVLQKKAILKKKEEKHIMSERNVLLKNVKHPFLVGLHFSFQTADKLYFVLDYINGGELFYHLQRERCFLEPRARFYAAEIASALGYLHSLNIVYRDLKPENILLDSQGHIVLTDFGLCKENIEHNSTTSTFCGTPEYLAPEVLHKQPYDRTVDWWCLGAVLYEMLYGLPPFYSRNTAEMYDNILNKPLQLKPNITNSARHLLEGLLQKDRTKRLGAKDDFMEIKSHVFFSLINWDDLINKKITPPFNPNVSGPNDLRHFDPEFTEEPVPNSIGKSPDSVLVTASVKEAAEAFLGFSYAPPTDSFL
Summary of the method: as §1

SIK1 = molecular target: T6, SIK1 (Homo sapiens, UniProt P57059)
T6 construct: purchased Reaction Biology Corp
T6 sequence (P57059 whole entry): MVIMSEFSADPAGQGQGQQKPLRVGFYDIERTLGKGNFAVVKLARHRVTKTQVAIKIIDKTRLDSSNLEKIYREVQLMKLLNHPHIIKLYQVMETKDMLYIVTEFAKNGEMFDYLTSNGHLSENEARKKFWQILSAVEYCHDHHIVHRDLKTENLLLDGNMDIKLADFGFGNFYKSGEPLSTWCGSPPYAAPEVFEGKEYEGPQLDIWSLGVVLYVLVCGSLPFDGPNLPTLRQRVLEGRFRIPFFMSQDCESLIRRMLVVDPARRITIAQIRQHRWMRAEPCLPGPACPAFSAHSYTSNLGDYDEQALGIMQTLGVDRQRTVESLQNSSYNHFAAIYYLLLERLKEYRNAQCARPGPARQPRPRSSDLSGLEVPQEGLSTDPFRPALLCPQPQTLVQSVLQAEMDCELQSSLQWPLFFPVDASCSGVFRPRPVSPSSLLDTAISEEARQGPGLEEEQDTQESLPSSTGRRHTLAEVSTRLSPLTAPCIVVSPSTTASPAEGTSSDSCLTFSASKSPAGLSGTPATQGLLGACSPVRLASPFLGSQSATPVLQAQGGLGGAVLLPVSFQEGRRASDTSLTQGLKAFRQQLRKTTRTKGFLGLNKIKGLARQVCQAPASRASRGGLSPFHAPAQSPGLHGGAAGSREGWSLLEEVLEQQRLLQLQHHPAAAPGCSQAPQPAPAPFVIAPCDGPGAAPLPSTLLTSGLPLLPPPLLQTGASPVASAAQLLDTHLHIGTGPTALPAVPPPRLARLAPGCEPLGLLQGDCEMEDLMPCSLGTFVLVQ
Summary of the method: as §1

SYK = molecular target: T7, SYK (Homo sapiens, UniProt P43405)
T7 construct: purchased Reaction Biology Corp

[1] = read-out: % Enzyme Activity (relative to DMSO controls) Run 1
[2] = read-out: % Enzyme Activity (relative to DMSO controls) Run 2

T1 sequence (P11362 22-822): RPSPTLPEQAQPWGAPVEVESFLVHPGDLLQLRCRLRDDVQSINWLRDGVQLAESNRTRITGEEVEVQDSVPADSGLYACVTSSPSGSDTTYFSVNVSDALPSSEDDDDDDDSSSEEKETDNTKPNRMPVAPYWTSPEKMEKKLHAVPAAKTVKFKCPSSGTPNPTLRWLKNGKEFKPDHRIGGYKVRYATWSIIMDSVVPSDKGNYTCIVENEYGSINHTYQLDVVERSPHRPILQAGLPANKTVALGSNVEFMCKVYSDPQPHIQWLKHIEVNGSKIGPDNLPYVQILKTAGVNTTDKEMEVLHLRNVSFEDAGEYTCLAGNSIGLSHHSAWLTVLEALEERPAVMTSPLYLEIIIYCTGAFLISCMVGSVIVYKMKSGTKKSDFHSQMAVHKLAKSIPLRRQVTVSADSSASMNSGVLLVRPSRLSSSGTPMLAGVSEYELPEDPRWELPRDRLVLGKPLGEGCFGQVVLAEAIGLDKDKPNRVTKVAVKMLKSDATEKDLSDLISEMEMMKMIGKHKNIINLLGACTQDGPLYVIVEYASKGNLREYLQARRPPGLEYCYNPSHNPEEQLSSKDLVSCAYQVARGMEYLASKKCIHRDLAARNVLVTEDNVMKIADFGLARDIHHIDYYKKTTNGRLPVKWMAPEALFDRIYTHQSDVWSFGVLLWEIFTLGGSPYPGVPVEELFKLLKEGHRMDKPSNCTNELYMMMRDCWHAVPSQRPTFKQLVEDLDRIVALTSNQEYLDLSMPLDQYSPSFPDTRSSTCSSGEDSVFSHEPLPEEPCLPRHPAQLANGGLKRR

## C=CC(=O)Nc1cccc(Nc2nc(Nc3ccc(OCCOC)c(F)c3)ncc2F)c1 [Compound 2]
FGFR1
  inhibition at 3 µM: 59.7%
FGFR1; [1]
  remaining activity at 3 µM: 41.4%
FGFR1; [2]
  remaining activity at 3 µM: 39.3%
IKKa/CHUK
  inhibition at 3 µM: 8.54%
IKKa/CHUK; [1]
  remaining activity at 3 µM: 91.4%
IKKa/CHUK; [2]
  remaining activity at 3 µM: 91.5%
MNK1
  inhibition at 3 µM: 3.98%
MNK1; [1]
  remaining activity at 3 µM: 97.8%
MNK1; [2]
  remaining activity at 3 µM: 94.3%
NEK5
  inhibition at 3 µM: 39.4%
NEK5; [1]
  remaining activity at 3 µM: 60.2%
NEK5; [2]
  remaining activity at 3 µM: 60.9%
SGK1
  inhibition at 3 µM: 0.37%
SGK1; [1]
  remaining activity at 3 µM: 99.7%
SGK1; [2]
  remaining activity at 3 µM: 99.5%
SIK1
  inhibition at 3 µM: 51.4%
SIK1; [1]
  remaining activity at 3 µM: 48.4%
SIK1; [2]
  remaining activity at 3 µM: 48.7%
SYK
  inhibition at 3 µM: 22.4%
SYK; [1]
  remaining activity at 3 µM: 78%
SYK; [2]
  remaining activity at 3 µM: 77.1%

Reference: patent US9492471B2, “Methods of treating a disease or disorder associated with Bruton'S Tyrosine Kinase” (Celgene Avilomics Research, Inc., priority 2013, dated 2016)
